Assay [1] has as its system RWPE-1 human normal prostate epithelial cells. The assay can be described thus: MTT cell proliferation assay, RWPE-1. The format is cell-based. The settings on record: 24 hours, RWPE-1 normal cells, mean ± S.D. As for the experimental part:
Human prostate normal cell line (RWPE-1) and human prostate cancer cell lines; LNCaP and PC-3, were purchased from the American Type Culture Collection (ATCC, Manassas, Virginia, USA). LNCaP and PC-3 cells were grown in Roswell Park Memorial Institute medium (RPMI) supplemented with 10% heat-inactivated fetal bovine serum (FBS, Sigma-Aldrich, St. Louis, MO), 1% penicillin and streptomycin. RWPE-1 cells were maintained in Keratinocyte Serum Free Medium (K-SFM, ATCC) supplemented with bovine pituitary extract (BPE) and human recombinant epidermal growth factor (EGF). Mediums were supplemented with 10% heat-inactivated fetal calf serum (Sigma.), 100 U/ml penicillin and […] streptomycin (Flowlab, Sydney, Australia). All cells were maintained in a humidified atmosphere of 5% CO2 in air at 37°C incubator.
The anti-proliferative activity was evaluated by performing MTT assays as previously described with minor modifications. Briefly, cells were seeded 24 hours prior to treatment in a 96-well plate at 5×10^4 cells/well in order to obtain 70% to 80% confluent cultures. The compounds were dissolved in DMSO (Sigma Chemical Co., St. Louis, Missouri, USA) followed by a 2×serial dilution for 10 points ranged from 0.825 µM to 100 µM. The 96-well plate was incubated for 24 hours at 37°C in a humidified atmosphere with 5% CO2. At the end of incubation, 50 µl of MTT solution (2 mg/ml; Sigma) was added to each well. The plate was then incubated for 4 hours. All medium was removed and the purple formazan crystal formed at the bottom of the wells was dissolved with 200 µl DMSO for 20 minutes. The absorbance at 570 nm was read on a spectrophotometric plate reader (Hidex). The proportion of surviving cells was calculated as: […]
Dose-response curves were constructed to obtain the IC50 values. Experimental data were derived from 3 independent experiments. The selectivity index was obtained by mean IC50 RWPE-1/mean IC50 of LNCaP or PC-3.
For orientation: Tetrazolium assays rely on reduction of a dye to a coloured formazan, in cell work by metabolically active cells.

The subject of assay [2] is glutathione reductase (GR) gene expression in LNCaP cells. Description: Oxidative stress and antioxidant defense qPCR-array, LNCaP. It counts as cell-based, human. The conditions noted are these: 12.5 µM, 18 h, relative to control cells. The protocol: LNCaP and PC-3 cells were treated with subditine (1) (12.5 µM) for 18 h. RNA was extracted from PC-3 or LNCaP cells using RNeasy plus mini kit (Qiagen). 1 µg of RNA was reverse transcribed into cDNA using the RT2 first strand kit (SA Biosciences, Qiagen).cDNA was mixed with RT2 Real Time™ SYBR Green/fluorescein PCR master-mix and loaded into each 96 wells of the Human Oxidative Stress and Antioxidant Defense qPCR array according to the manufacturer’s protocol (SA Biosciences, Qiagen). Briefly, a total volume of 25 µl of PCR mixture, which included 12.5 µl of mastermix, 11.5 µl of double distilled water, and 1 µl of cDNA was loaded into each of the 96wells. qPCR were done using StepOne PLUS real-time PCR machine (Applied Biosystems). PCR amplification was conducted at 95°C for 10 min, followed by 40 cycles of 95°C for 15 sec and 60°C for 1 min. The mRNA expression for each gene was normalized using the average expression of five housekeeping genes:
β-actin (ACTB), β-2-microglobulin (β2M), hypoxanthine phosphoribosyltransferase 1 (HPRT1), ribosomal protein L13a (RPL13A) and glyceraldehyde-3-phosphate dehydrogenase (GAPDH). The ΔΔCt method was used for data analysis. Fold changes were calculated for each gene as the difference in gene expression between subditine (1) or non-treated control using the RT Profiler qPCR-array data analysis software.
(In general: Quantitative PCR measures a nucleic acid by following its amplification.)

The record followed here is paper PMC3925085, “Subditine, a New Monoterpenoid Indole Alkaloid from Bark of Nauclea subdita (Korth.) Steud. Induces Apoptosis in Human Prostate Cancer Cells” (PLoS ONE, 2014).

Structures are written as SMILES.

In general, IC50 refers to the concentration needed to halve the response being measured. A low value points to higher potency. Take `Cc1ncc2c(=O)n3c(cc2c1C=O)-c1[nH]c2ccccc2c1CC3` [Subditine, subditine]: half-maximal inhibition in assay [1] (IC50) required 30.48 ± 0.08 µM. Besides, the “glutathione reductase (GR) gene expression fold change” value in assay [2] is more than 100 fold.
